Laboratory results as given in EP2623495B1, “Positively charged water-soluble prodrugs of n-arylanthranilic acids with very fast skin penetration rate” (Techfields Biochem Co. Ltd, priority 2006, dated 2008).
In brackets after ≈: the same amount, converted by molar mass. Where two headings read alike, the source gives them in different places.

Assays:
[1] = taken orally; cited from earlier work
[2] = cited from earlier work
[3] = rat, in vivo, po, 50 mg/kg/day, 21 days
[4] = hairless, mouse, in vivo
From the text: (§1) The in vivo rates of penetration of diethylaminoethyl 2-[(2,3-dimethylphenyl)amino]benzoate.AcOH, diethylaminoethyl 2-[(2,6-dichloro-3-methylphenyl)amino]benzoate.AcOH, diethylaminoethyl 2-[[(3-(trifluoromethyl)phenyl)amino]benzoate.AcOH, diethylaminoethyl 2-[[3-(trifluoromethyl)phenyl]amino]-3-pyridinecarboxylate.AcOH, and diethylaminoethyl 2-[[2-methyl-3-(trifluoromethyl)phenyl]amino]-3-pyridinecarboxylate.AcOH, mefenamic acid, meclofenamic acid, flufenamic acid, niflumic acid, and flunixin through the skin of intact hairless mice were compared. The donor consisted of a 20% solution of these compounds in 1 mL of isopropanol applied to a 10 cm^2 on the backs of the hairless mice. Plasma levels of mefenamic acid, meclofenamic acid, flufenamic acid, niflumic acid, and flunixin were determined by a specific high-performance liquid chromatography method.

physchem = conditions: water
[5] = Analgetic activity: acetic acid writhing inhibition; type: in vivo; conditions: mice; for No. of Writhings: 100 mg/kg transdermally 60 minutes before acetic acid solution intraperitoneally, control group 35.0; for rate of writhings inhibition %: 100 mg/kg transdermally 60 minutes before acetic acid solution, based on the control group
From the text: The group A is the control group. Table 1. The rate of writhings inhibition by prodrugs of arylanthranilic acids

[6] = Antipyretic activity after sterilized E. coli suspension as a pyrogen; type: in vivo; conditions: rats, 100 mg/kg transdermally 2 hours after E. coli pyrogen
Method: Antipyretic activity: Rats received a sterilized E. coli suspension as a pyrogen. […] The body temperature of rats was taken at 90 min. intervals before and after the administration of the test compounds. Table 2. Antipyretic Activity of prodrugs of arylanthranilic acids.

Solubility in water = conditions: for solubility: solubility in water
[7] = Gastroduodenal bleeding (fecal blood) after oral administration for 21 days; conditions: rats, orally 50 mg/kg per day for 21 days
[8] = In vitro penetration through human skin in modified Franz cells; type: in vitro ADME; conditions: for Apparent flux values: human skin 360-400 µm, donor 30% solution (prodrugs) or 30% suspension (parent drugs) in 2mL of pH 7.4 phosphate buffer (0.2M); for diffuses through human skin times faster than the parent drug: prodrug versus mefenamic acid, meclofenamic acid, flufenamic acid, niflumic acid, or flunixin
[9] = Analgetic activity: prolongation time of the pain threshold of a mouse tail (D'Amour-Smith Method); type: in vivo, mice; conditions: 50mg/kg transdermally, mouse tails exposed to heat; Figure 3
Method: Analgetic activity: The prolongation time of the pain threshold of a mouse tail was determined in accordance with the D'Amour-Smith Method (J. Pharmacol. Exp. Ther., 72, 74(1941)). After 50mg/kg of these prodrugs were administered transdermally, the tails of mice were exposed to heat and the prolongation time of pain threshold was determined.
Group A is the control group. • Figure 4. The rate of swelling (%) after a carrageenin injection. […] Group A is the control group. • Figure 5.

[10] = In vivo penetration through the skin of intact hairless mice, plasma levels by HPLC; conditions: for peak plasma levels / time to peak levels after application of the donor systems: 20% solution in 1 mL of isopropanol on 10 cm^2 of the backs of hairless mice; for peak plasma levels: plasma levels of parent drug; for time to peak levels after application of the donor systems: transdermal; for difference in peak plasma levels, prodrugs versus parent drugs: topical application, hairless mice
From the text: as §1

[11] = Acute toxicity, LD50 orally; conditions: mouse, in vivo, po; orally in mice; prodrugs
From the text: The acute toxicity of the prodrugs was investigated.

[12] = J. Pharm. Sci., 82, 227(1993); cited from earlier work
[13] = parent drugs, given for comparison

Compound	time to reach peak plasma level [1] [h]	average fecal blood [3]	peak plasma levels [4] [mg/mL]	solubility (physchem) [mg/mL]	No. of Writhings [5]	rate of writhings inhibition % [5] [%]	body temperature t=0 min. [6]	body temperature t=90 min. [6]	body temperature t=180 min. [6]	body temperature t=270 min. [6]	solubility (Solubility in water) [mg/mL]	average fecal blood [7]	Apparent flux values [8] [mg/cm^2/h]	diffuses through human skin times faster than the parent drug [8] [times]	analgesic activity, prolongation time of pain threshold (in words) [9]	peak plasma levels [10] [mg/mL]	time to peak levels after application of the donor systems [10] [min]	difference in peak plasma levels, prodrugs versus parent drugs [10]	LD50 [11] [mg/kg]	further results
O=C(O)c1cccnc1Nc1cccc(C(F)(F)F)c1 [niflumic acid, 2-[[3-(trifluoromethyl)phenyl]amino]-3-pyridinecarboxylic acid]	2 to 4	2-4 mg of fecal blood per gram of feces	~0.01	< 0.1	–	–	–	–	–	–	–	–	–	–	–	–	–	–	–	LD50 [2, 13]: 650 mg/kg
Cc1ccc(Cl)c(Nc2ccccc2C(=O)O)c1Cl [meclofenamic acid, 2-[(2,6-dichloro-3-methylphenyl)amino]benzoic acid]	2 to 4	2-4 mg of fecal blood per gram of feces	~0.01	< 0.1	–	–	–	–	–	–	–	–	–	–	–	–	–	–	–	–
CCN(CC)CCOC(=O)c1cccnc1Nc1cccc(C(F)(F)F)c1C [diethylaminoethyl 2-[[2-methyl-3-(trifluoromethyl)phenyl]amino]-3-pyridinecarboxylate.AcOH]	–	–	–	–	15.7	55	37.23±0.06	36.69±0.06	36.52±0.08	36.40±0.07	> 450	none	1.7	~200	shown analgesic activity nicely	~2	~50	approximately 200 times	1100	solubility in water (Solubility in water): 400 mg/mL (≈ 1010 mM)
O=C(O)c1ccccc1Nc1cccc(C(F)(F)F)c1 [flufenamic acid, 2-[[(3-trifluoromethyl)phenyl]amino]benzoic acid]	2 to 4	2-4 mg of fecal blood per gram of feces	~0.01	< 0.1	–	–	–	–	–	–	–	–	–	–	–	–	–	–	–	LD50 [2, 13]: 715 mg/kg
Cc1c(Nc2ncccc2C(=O)O)cccc1C(F)(F)F [flunixin, 2-[[2-methyl-3-(trifluoromethyl)phenyl]amino]-3-pyridinecarboxylic acid]	2 to 4	2-4 mg of fecal blood per gram of feces	~0.01	< 0.1	–	–	–	–	–	–	–	–	–	–	–	–	–	–	–	–
CCN(CC)CCOC(=O)c1ccccc1Nc1c(Cl)ccc(C)c1Cl [diethylaminoethyl 2-[(2,6-dichloro-3-methylphenyl)amino]benzoate.AcOH]	–	–	–	–	14.2	59	37.28±0.06	36.68±0.05	36.62±0.08	36.58±0.07	> 400	none	2.0	~200	shown analgesic activity nicely	~2	~50	approximately 200 times	1000	–
CCN(CC)CCOC(=O)c1ccccc1Nc1cccc(C(F)(F)F)c1 [diethylaminoethyl 2-[[(3-(trifluoromethyl)phenyl)amino]benzoate.AcOH]	–	–	–	–	16.1	54	37.27±0.06	36.76±0.05	36.65±0.08	36.49±0.07	> 400	none	2.2	~200	shown analgesic activity nicely	~2	~50	approximately 200 times	800	–
Cc1cccc(Nc2ccccc2C(=O)O)c1C [mefenamic acid, 2-[(2,3-Dimethylphenyl)amino]benzoic acid]	2 to 4	2-4 mg of fecal blood per gram of feces	~0.01	< 0.1	–	–	–	–	–	–	–	–	–	–	–	–	–	–	–	LD50 ([2]; mouse, in vivo): 600 mg/kg
CC(=O)O.CCN(CC)CCNC(=O)c1ccccc1Nc1cccc(C)c1C [N-diethylaminoethyl 2-[(2,3-dimethylphenyl)amino] benzoamide.AcOH]	–	–	–	–	–	–	–	–	–	–	–	–	–	–	–	–	–	–	–	solubility in water (Solubility in water): 400 mg/mL
CCN(CC)CCOC(=O)c1cccnc1Nc1cccc(C(F)(F)F)c1 [diethylaminoethyl 2-[[3-(trifluoromethyl)phenyl]amino]-3-pyridinecarboxylate.AcOH]	–	–	–	–	15.2	57	37.25±0.07	36.82±0.06	36.70±0.05	36.50±0.08	> 450	none	1.8	~200	shown analgesic activity nicely	~2	~50	approximately 200 times	750	solubility in water (Solubility in water): 400 mg/mL (≈ 1050 mM)
CCN(CC)CCOC(=O)c1ccccc1Nc1cccc(C)c1C [diethylaminoethyl 2-[(2,3-dimethylphenyl)amino]benzoate.AcOH]	–	–	–	–	15.6	55	37.35±0.06	36.71±0.05	36.60±0.08	36.59±0.07	> 400	none	2.1	~200	shown analgesic activity nicely	~2	~50	approximately 200 times	900	–
CN(C)CCCC(=O)O[C@H]1CC[C@H]2[C@@H]3CCC4=CC(=O)CC[C@]4(C)[C@H]3CC[C@]12C.Cl [TSBH, testosteronyl-4-dimethylaminobutyrate.HCl]	–	–	–	–	–	–	–	–	–	–	–	–	–	–	–	–	–	–	–	diffuses through human skin times faster than the drug (TS) itself [12]: ~60 times
CCN(CC)CCNC(=O)c1ccccc1Nc1c(Cl)ccc(C)c1Cl [N-diethylaminoethyl 2-[(2,6-dichloro-3-methylphenyl)amino] benzoamide.AcOH]	–	–	–	–	–	–	–	–	–	–	400 (≈ 1010 mM)	–	–	–	–	–	–	–	–	–
